According to ChEMBL document CHEMBL5331132, “Expanding the Chemistry of Dihaloacetamides as Tunable Electrophiles for Reversible Covalent Targeting of Cysteines” (J Med Chem, 2023):
Blank lines part the entries; values can stand above or below the compound they belong to. Activity calls are given as the source filed them. The calls are words filed in the database; no cut-off is given here.

Tests used:
[1] = Glutathione reactivity in potassium phosphate buffer at pH 7.2 assessed as half life at 1 mM by UHPLC analysis; assay type: physicochemical
[2] = system: GTPase KRas (Homo sapiens), P01116 [G12C]; assay: Covalent binding affinity to recombinant human KRAS G12C mutant (1 to 169 residues) expressed in Escherichia coli BL21 (DE3) gold assessed as protein labelling at 1 uM incubated for 2 hrs by In-gel fluorescence analysis
NCI-H358 = assay: Antiproliferative activity against human NCI-H358 cells harboring KRAS p.G12C mutant assessed as inhibition of cell growth incubated for 72 hrs by cell count reagent SF based assay; assay type: functional; conditions: NCI-H358, 72 h
[3] = system: GTPase KRas (Homo sapiens), P01116 [G12C]; assay: Covalent inhibition of KRAS G12C mutant in human NCI-H358 cells assessed as reduction in protein labelling by probe at 1 uM preincubated for 3 hrs and further incubated with 2-((S)-4-(7-(8-chloronaphthalen-1-yl)-2-(((S)-1-(pent-4-yn-1-yl)pyrrolidin-2-yl)methoxy)-5,6,7,8-tetrahydropyrido[3,4-d]pyrimi …; assay type: cell-based; conditions: time 4.0 hrs
MIA PaCa-2 = assay: Antiproliferative activity against human MIA PaCa-2 cells assessed as inhibition of cell growth incubated for 72 hrs by cell count reagent SF based assay; assay type: functional; conditions: MIA PaCa-2, 72 h
[4] = system: GTPase KRas (Homo sapiens), P01116 [G12C]; assay: Inhibition of KRAS G12C mutant in human MIA PaCa-2 cells assessed as reduction in ERK1/2 phosphorylation at T185/Y187 residues at 0.5 uM incubated for 0.5 to 4 hrs by Western blot analysis; assay type: cell-based; conditions: time 0.5-4 hrs
[5] = system: GTPase KRas (Homo sapiens), P01116 [G12C]; assay: Inhibition of KRAS G12C mutant in human NCI-H358 cells assessed as reduction in ERK1/2 phosphorylation at T185/Y187 residues at 0.5 uM incubated for 0.5 to 4 hrs by Western blot analysis; assay type: cell-based; conditions: time 0.5-4 hrs
[6] = Metabolic stability in human liver microsomes assessed as clearance at 1 uM incubated for 30 mins by LC-MS/MS analysis; assay type: ADME, Microsome; conditions: read-out: CLH
[7] = system: GTPase KRas (Homo sapiens), P01116 [G12C]; assay: Inhibition of KRAS G12C mutant in human NCI-H358 cells assessed as reduction in ERK1/2 phosphorylation at T185/Y187 residues at 0.001 to 1 uM incubated for 4 hrs by Western blot analysis; assay type: cell-based; conditions: dose 0.001-1 µM
[8] = system: GTPase KRas (Homo sapiens), P01116 [G12C]; assay: Irreversible inhibition of KRAS G12C mutant in human NCI-H358 cells assessed as reduction in ERK1/2 phosphorylation at T185/Y187 residues at 0.001 to 1 uM incubated for 4 hrs followed by washout and further incubated with fresh medium for 4 hrs by Western blot analysis; assay type: cell-based; conditions: dose 0.001-1 µM
[9] = system: GTPase KRas (Homo sapiens), P01116 [G12C]; assay: Inhibition of KRAS G12C mutant in human MIA PaCa-2 cells assessed as reduction in ERK1/2 phosphorylation at T185/Y187 residues at 0.001 to 1 uM incubated for 4 hrs by Western blot analysis; assay type: cell-based; conditions: dose 0.001-1 µM
[10] = Antiproliferative activity against human gefitinib resistant NCI-H1975 cells harboring EGFR L858R/T790M double mutant assessed as inhibition of cell proliferation incubated for 72 hrs by cell count reagent SF based assay; assay type: functional
[11] = system: GTPase KRas (Homo sapiens), P01116 [G12C]; assay: Inhibition of KRAS G12C mutant in human NCI-H358 cells assessed as reduction in ERK1/2 phosphorylation at T185/Y187 residues at 0.1 uM incubated for 4 hrs by Western blot analysis relative to control; assay type: cell-based
[12] = system: GTPase KRas (Homo sapiens), P01116 [G12C]; assay: Inhibition of KRAS G12C mutant in human NCI-H358 cells assessed as reduction in ERK1/2 phosphorylation at T185/Y187 residues at 1 uM incubated for 4 hrs by Western blot analysis; assay type: cell-based
[13] = target: Epidermal growth factor receptor (Homo sapiens) (UniProt P00533); assay: Inhibition of EGFR autophosphorylation in human NCI-H1975 cells assessed as reduction in ERK1/2 phosphorylation at T185/Y187 residue at 0.01 to 1 uM incubated for 4 hrs by Western blot analysis; assay type: cell-based; conditions: dose 0.01-1 µM
[14] = target: Epidermal growth factor receptor (Homo sapiens) (UniProt P00533); assay: Inhibition of EGFR autophosphorylation at Y1068 residue in human NCI-H1975 cells at 0.01 to 1 uM incubated for 4 hrs by Western blot analysis; assay type: cell-based; conditions: dose 0.01-1 µM
[15] = system: GTPase KRas (Homo sapiens), P01116 [G12C]; assay: Binding affinity to KRAS G12C mutant in human NCI-H358 cells assessed as protein labelling at 1 uM incubated for 1 hrs by In-gel fluorescence analysis; assay type: cell-based
[16] = system: GTPase KRas (Homo sapiens), P01116 [G12C]; assay: Inhibition of KRAS G12C mutant in human NCI-H358 cells assessed as reduction in ERK1/2 phosphorylation at T185/Y187 residues upto 10 uM incubated for 4 hrs by Western blot analysis; assay type: cell-based

SMILES: C#CCOCCOCCOc1cccc(N2CCN(C(=O)C(C)(F)Br)CC2)c1 (centres undefined)
half-life at 1000 µM [1]: > 167 h

SMILES: O=C(Nc1cc2c(Nc3ccc(F)c(Cl)c3)ncnc2cc1OCCCN1CCOCC1)[C@H]1CCCN1C(=O)C(F)Cl (some centres undefined)
IC50 [10]: 280 nM

SMILES: C#CCOCCOCCOc1cccc(N2CCN(C(=O)C(F)(F)Br)CC2)c1
half-life at 1000 µM [1]: 33.4 h

SMILES: C#CCOCCOCCOc1cccc(N2CCN(C(=O)CF)CC2)c1
half-life at 1000 µM [1]: > 167 h

SMILES: O=C(Nc1cc2c(Nc3ccc(F)c(Cl)c3)ncnc2cc1OCCCN1CCOCC1)[C@H]1CCCN1C(=O)C(Cl)Cl
inhibition [13]: Active
inhibition [14]: Active
IC50 [10]: 490 nM

SMILES: CN1CCC[C@H]1COc1nc2c(c(N3CCN(C(=O)C(F)Cl)CC3)n1)CCN(c1cccc3cccc(Cl)c13)C2 (some centres undefined)
IC50 (NCI-H358): 4800 nM

SMILES: C#CCCCN1CCC[C@H]1COc1nc2c(c(N3CCN(C(=O)C(=C)F)[C@@H](CC#N)C3)n1)CCN(c1cccc3cccc(Cl)c13)C2
Activity [15]: Active

SMILES: C#CCOCCOCCOc1cccc(N2CCN(C(=O)C(F)F)CC2)c1
half-life at 1000 µM [1]: 129 h

Results, then the compound that gave them:

Activity [2]: Active
IC50 (NCI-H358): 69.7 nM
SMILES: C#CCCCN1CCC[C@H]1COc1nc2c(c(N3CCN(C(=O)C(Cl)Cl)[C@@H](CC#N)C3)n1)CCN(c1cccc3ccc(F)c(Cl)c13)C2

inhibition [3]: Active
IC50 (MIA PaCa-2): 5.68 nM
inhibition [4]: Active
IC50 (NCI-H358): 10 nM
inhibition [5]: Active
microsomal CLint at 1 µM [6]: 110 µL/min/mg
inhibition [7]: Active
inhibition [8]: Active
inhibition [9]: Active
SMILES: CN1CCC[C@H]1COc1nc2c(c(N3CCN(C(=O)C(Cl)Cl)[C@@H](CC#N)C3)n1)CCN(c1cccc3ccc(F)c(Cl)c13)C2

inhibition [11]: 100%
IC50 (NCI-H358): 26.1 nM
inhibition [12]: Active
microsomal CLint at 1 µM [6]: 226 µL/min/mg
SMILES: CN1CCC[C@H]1COc1nc2c(c(N3CCN(C(=O)C(Cl)Cl)[C@@H](CC#N)C3)n1)CCN(c1cccc3cccc(Cl)c13)C2

inhibition [11]: 100%
IC50 (NCI-H358): 12.3 nM
inhibition [12]: Active
microsomal CLint at 1 µM [6]: 272 µL/min/mg
SMILES: CN1CCC[C@H]1COc1nc2c(c(N3CCN(C(=O)[C@@H](F)Cl)[C@@H](CC#N)C3)n1)CCN(c1cccc3cccc(Cl)c13)C2

IC50 (NCI-H358): 1390 nM
SMILES: CN1CCC[C@H]1COc1nc2c(c(N3CCN(C(=O)CCl)[C@@H](CC#N)C3)n1)CCN(c1cccc3cccc(Cl)c13)C2

IC50 (MIA PaCa-2): 3.92 nM
IC50 (NCI-H358): 9.2 nM
microsomal CLint at 1 µM [6]: 215 µL/min/mg
SMILES: C=C(F)C(=O)N1CCN(c2nc(OC[C@@H]3CCCN3C)nc3c2CCN(c2cccc4cccc(Cl)c24)C3)C[C@@H]1CC#N [ADAGRASIB]

IC50 (NCI-H358): 162 nM
SMILES: CN1CCC[C@H]1COc1nc2c(c(N3CCN(C(=O)[C@H](F)Cl)[C@@H](CC#N)C3)n1)CCN(c1cccc3cccc(Cl)c13)C2

IC50 (NCI-H358): 16.7 nM
SMILES: CN1CCC[C@H]1COc1nc2c(c(N3CCN(C(=O)C(F)Cl)[C@@H](CC#N)C3)n1)CCN(c1cccc3cccc(Cl)c13)C2 (some centres undefined)

IC50 (NCI-H358): > 10000 nM
inhibition [16]: inactive
SMILES: CC(=O)N1CCN(c2nc(OC[C@@H]3CCCN3C)nc3c2CCN(c2cccc4cccc(Cl)c24)C3)C[C@@H]1CC#N (racemic)

Activity [2]: Active
IC50 (NCI-H358): 365 nM
SMILES: C#CCCCN1CCC[C@H]1COc1nc2c(c(N3CCN(C(=O)[C@@H](F)Cl)[C@@H](CC#N)C3)n1)CCN(c1cccc3cccc(Cl)c13)C2
